These results are taken from PMC10507793, “Discovery and computational studies of piperidine/piperazine-based compounds endowed with sigma receptor affinity” (RSC Medicinal Chemistry, 2023).

One experiment has as its target T1, S2R (Rattus norvegicus, UniProt Q5U3Y7).
T1 sequence (Q5U3Y7 1-176): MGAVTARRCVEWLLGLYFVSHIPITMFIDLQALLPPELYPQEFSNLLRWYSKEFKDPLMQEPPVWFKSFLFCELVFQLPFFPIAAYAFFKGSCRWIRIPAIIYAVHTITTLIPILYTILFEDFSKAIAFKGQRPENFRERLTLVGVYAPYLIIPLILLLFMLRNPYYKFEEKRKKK
Put plainly: S2R radioligand binding assay with [3H]DTG. As to conditions: for Ki: read-out: Ki ± SD S2R, rat liver homogenates, [3H]DTG, (+)-pentazocine as S1R masking agent, mean ± SD of at least two experiments in duplicate; for binding to S2R (in words): radioligand binding.

Experiment [1] addresses T2, S1R (Rattus norvegicus, UniProt Q9R0C9). Nature of the experiment: S1R radioligand binding assay with [3H](+)-pentazocine. Particulars: for Ki: read-out: Ki ± SD S1R, rat liver homogenates, [3H](+)pentazocine, mean ± SD of at least two experiments in duplicate; for binding to S1R (in words): radioligand binding; for KiS2R/KiS1R ratio: selectivity over S2R.
The target in experiment [2] is T2, S1R. Put plainly: S1R functional assay (phenytoin method, [3H](+)-pentazocine displacement). It is filed as binding. More on the design: liver homogenates from male Sprague Dawley rats; from tissue; host or cells: rat liver homogenate (male Sprague Dawley). As to conditions: rat liver; for ratio of Ki without phenytoin/with phenytoin: agonist if ratio >1, antagonist if ≤1. How it is done:
Phenytoin is an allosteric modulator for the S1R, and it differentially modulates the affinity of S1R ligands on the basis of their agonist or antagonist profile.[22,23]
The experiments were performed one time in the presence of phenytoin and one time without phenytoin. […] The incubation of samples lasts 120 min at 37 °C. Unlabeled (+)-pentazocine (10 μM) was used to measure non-specific binding.
GraphPad Prism® 7.0 (GraphPad Software, San Diego, CA, USA) program was used to calculate the Ki values that are given as mean value ± SD from at least two independent experiments performed in duplicate.

Experiment [3] concerns the target S1R. Particulars: co-crystallized ligand; no reference given; read-out: KiS1R; cited from earlier work.

Structures are written as SMILES. “Also recorded” adds a separate entry of the source.

T2 sequence (Q9R0C9 whole entry): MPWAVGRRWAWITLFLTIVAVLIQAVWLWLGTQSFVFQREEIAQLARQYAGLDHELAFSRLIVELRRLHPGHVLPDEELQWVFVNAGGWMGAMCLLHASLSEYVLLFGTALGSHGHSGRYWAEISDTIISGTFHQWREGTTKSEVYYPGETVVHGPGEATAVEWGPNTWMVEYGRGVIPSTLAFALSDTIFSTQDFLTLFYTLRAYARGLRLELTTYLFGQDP

`O=C(CCN1CCC(Cc2ccccc2)CC1)N1CCN(c2ccc(O)cc2)CC1` [Compound 4]: the Ki is 1000 ± 203 nM on S2R and 328 ± 58 nM at S1R [1].
As for `Cc1ccc(C(=O)N2CCN(Cc3ccc(F)cc3)CC2)o1` [Compound 8], the figures for the Ki on S2R and at S1R [1] were greater than 10000 nM and 214 ± 29 nM, respectively.
Regarding `O=C(c1ccccc1)N1CCN(c2ccc(O)cc2)CC1` [Compound 12], on S2R, the “binding to S2R (in words)” value was “failed to bind; also recorded: did not bind” and the Ki was greater than 10000 nM. On S1R [1], the “binding to S1R (in words)” value was “failed to bind; also recorded: did not bind” and the Ki was greater than 10000 nM.
Consider `O=C(CN1CCC(Cc2ccccc2)CC1)N1CCN(c2ccc(O)cc2)CC1` [Compound 2], for which, at S2R, the Ki turned out to be 1200 ± 226 nM. Also, at S1R [1], the Ki worked out at 24 ± 5 nM and the KiS2R/KiS1R ratio was determined as 50.
On to `O=C(c1ccc(-c2ccccc2)cc1)N1CCN(c2ccc(O)cc2)CC1` [Compound 13], for which, on S2R, the “binding to S2R (in words)” value was “failed to bind; also recorded: did not bind” and the Ki is greater than 10000 nM. Moreover, on S1R [1], the “binding to S1R (in words)” value is reported as “failed to bind; also recorded: did not bind” and the Ki was greater than 10000 nM.
Consider `O=C(CN1CCC(Cc2ccccc2)CC1)N1CCN(c2ccccc2)CC1` [Compound 1, 2-[4-(benzyl)-1-piperidin-1-yl]-1-4-(4-phenylpiperazin-1-yl)ethanone], for which the Ki on S2R amounted to 104 ± 15 nM. The S1R functional profile result on S1R [2] (phenytoin assay) is listed as “S1R agonist”. Besides, the “ratio of Ki without phenytoin/with phenytoin” value at S1R [2] worked out at 1.8. In addition, at S1R [1], the Ki came to 3.2 ± 0.7 nM and the KiS2R/KiS1R ratio was determined as 33.
For the molecule `O=C(c1cc2ccccc2s1)N1CCN(Cc2ccc(F)cc2)CC1` [Compound 6], the Ki on S2R was greater than 10000 nM; on S1R [1] it was 82 ± 18 nM.
Take `O=C(c1cc2ccccc2o1)N1CCN(Cc2ccc(F)cc2)CC1` [Compound 7]: the Ki on S2R was greater than 10000 nM; on S1R [1], 132 ± 27 nM.
For the molecule `O=C(NC1CCN(Cc2ccccc2)CC1)c1ccc(I)cc1` [4-IBP], the Ki at S1R [3] was 1.7 nM.
As for `O=C(C(c1ccccc1)c1ccccc1)N1CCN(Cc2ccc(F)cc2)CC1` [Compound 11], the Ki is greater than 10000 nM at S2R and 390 ± 77 nM at S1R [1].
Take `O=C(Cc1ccccc1Br)N1CCN(Cc2ccc(F)cc2)CC1` [Compound 10]: the Ki at S2R is greater than 10000 nM; at S1R [1] it was 366 ± 80 nM.
Take `O=C(CCN1CCC(Cc2ccccc2)CC1)N1CCN(c2ccccc2)CC1` [Compound 3]: at S2R, the Ki came to 234 ± 43 nM. Besides, at S1R [1], the Ki came to 8.9 ± 1.3 nM and the KiS2R/KiS1R ratio is 26.
Turning to `C=CCN1CC[C@]2(C)c3cc(O)ccc3C[C@H]1[C@H]2C` [SKF-10 047, reference compound], the “ratio of Ki without phenytoin/with phenytoin” value at S1R [2] is recorded as 3.2.
As for `O=C(c1ccc([N+](=O)[O-])s1)N1CCN(Cc2ccc(F)cc2)CC1` [Compound 9], the values for the Ki at S2R and at S1R [1] were greater than 10000 nM and 309 ± 55 nM, respectively.
On to `O=C(CCN1CCC(Cc2ccc(F)cc2)CC1)N1CCN(c2ccc(O)cc2)CC1` [Compound 5], for which the Ki at S2R was 610 ± 146 nM; at S1R [1] it was 434 ± 47 nM.
